In brackets after ≈: the same amount, converted by molar mass.
What was measured:
KATO-III = assay: MTT analysis, anticancer activity; format: cell-based, human
[1] = test system: PC-3 prostate cancer cell line; assay: MTT analysis, anticancer activity; format: cell-based, human; details: 48 hr
HS27 = assay: MTT analysis, cytotoxicity against normal cell line; format: cell-based, human; details: 10 μg/ml sample
3T3-L1 = assay: as above; format: cell-based, mouse; details: 10 μg/ml sample
T-47D = assay: MTT analysis, anticancer activity; format: cell-based, human; details: 48 hr
NIH-3T3 = assay: MTT analysis, cytotoxicity against normal cell line; format: cell-based, mouse; details: 10 μg/ml sample
HT-29 = assay: MTT analysis, anticancer activity; format: cell-based, human; details: 10 μg/ml sample
ME-180 = assay: MTT analysis, anticancer activity; format: cell-based, human; details: 10 μg/ml sample
[2] = test system: DU-145 prostate cancer cell line; assay: MTT analysis, anticancer activity; format: cell-based, human; details: 48 hr
Description: (§1) To be specific, SK-Hep-1 cell, which is liver cancer cell line, was added to 96-well microplate (Falcon, USA) with the concentration of 3×10^5 cells/ml by 100 μl per well. Each extracted and separated substance dissolved in DMSO was added to the well by 100 μl for the final concentration to be from 50 μg/ml to 0.0244 μg/ml, with 200 μl of final volume. Each cell was cultured for 48 hr in a culture medium of 37° C. and 5% CO2. After cultivation, 20 μl of phosphate buffer solution containing 5 mg/ml of MTT (3-[4,5-dimethylthiazol-2-yl]-2,5-diphenyltetrazoliumbromide, Sigma Co.) reagent was added to each well, and then cultured for 4 hr. After taking 100 μl of supernant from each culture medium, 100 μl of 0.04N hydrochloric acid-isopropanol was added. After letting alone overnight, absorbance was measured at 560 nm using automatic Eliza detector (Molecular Divices Corp., USA). Anticancer activity of each extracted and separated substance was calculated from the absorbance value by Equation 1 and was expressed in terms of cell.
(§2) Average Existence Rate(%)=(Absorbance of Treated Group)/(Absorbance of Control Group)×100

LoVo = assay: MTT analysis, anticancer activity; format: cell-based, human; details: 10 μg/ml sample
MCF-7 = assay: MTT analysis, anticancer activity; format: cell-based, human
SK-N-SH = assay: MTT analysis, anticancer activity; format: cell-based, human; details: 48 hr
HS-746T = assay: MTT analysis, anticancer activity; format: cell-based, human; details: 10 μg/ml sample
HeLa = assay: MTT analysis, anticancer activity; format: cell-based, human; details: 48 hr
SK-BR-3 = assay: MTT analysis, anticancer activity; format: cell-based, human; details: 48 hr
CPAE = assay: MTT analysis, cytotoxicity against normal cell line; format: cell-based, bovine; details: 10 μg/ml sample
CHO = assay: as above; format: cell-based, Chinese hamster; details: 10 μg/ml sample
BT-20 = assay: MTT analysis, anticancer activity; format: cell-based, human; details: 48 hr
BT-549 = assay: MTT analysis, anticancer activity; format: cell-based, human; details: 10 μg/ml sample
[3] = test system: SK-Hep-1 liver cancer cell line; assay: MTT analysis, anticancer activity; format: cell-based, human; details: for IC50 SK-Hep-1: 48 hr
Description: as §1, §2

SK-MEL-28 = assay: MTT analysis, anticancer activity; format: cell-based, human; details: 48 hr
Hep-2 = assay: MTT analysis, anticancer activity; format: cell-based, human
HS683 = assay: MTT analysis, anticancer activity; format: cell-based, human; details: 48 hr
SK-OV-3 = assay: MTT analysis, anticancer activity; format: cell-based, human; details: 10 μg/ml sample
T98G = assay: MTT analysis, anticancer activity; format: cell-based, human; details: 48 hr
A431 = assay: MTT analysis, anticancer activity; format: cell-based, human; details: 48 hr
NCI-H69 = assay: MTT analysis, anticancer activity; format: cell-based, human; details: 10 μg/ml sample
HS-578T = assay: MTT analysis, anticancer activity; format: cell-based, human; details: 10 μg/ml sample
293 = assay: MTT analysis, cytotoxicity against normal cell line; format: cell-based, human; details: 10 μg/ml sample
Solubility = format: physicochemical
HT1080 = assay: MTT analysis, anticancer activity; format: cell-based, human; details: 48 hr

| Compound | IC50 PC-3 [1] | Existence rate class, HS27 (in IC50 table) (HS27) | Existence rate class, 3T3-L1 (in IC50 table) (3T3-L1) | IC50 T-47D (T-47D) | Existence rate class, NIH-3T3 (in IC50 table) (NIH-3T3) | Existence rate class, HT-29 (in IC50 table) (HT-29) | Existence rate class, ME-180 (in IC50 table) (ME-180) | IC50 DU-145 [2] | Existence rate class, LoVo (in IC50 table) (LoVo) | IC50 SK-N-SH (SK-N-SH) | Existence rate class, HS-746T (in IC50 table) (HS-746T) | IC50 HeLa (HeLa) | IC50 SK-BR-3 (SK-BR-3) | Existence rate class, CPAE (in IC50 table) (CPAE) | Existence rate class, CHO (in IC50 table) (CHO) | IC50 BT-20 (BT-20) | Existence rate class, BT-549 (in IC50 table) (BT-549) | IC50 SK-Hep-1 [3] | IC50 SK-MEL-28 (SK-MEL-28) | IC50 HS683 (HS683) | further results |
| --- | --- | --- | --- | --- | --- | --- | --- | --- | --- | --- | --- | --- | --- | --- | --- | --- | --- | --- | --- | --- | --- |
| COc1ccc(C(O)C(C)Oc2ccc(C3OC(c4ccc(OC(C)[C@@H](O)c5ccc(OC)c(OC)c5)c(OC)c4)C(C)C3C)cc2OC)cc1OC (single isomer, unassigned) [HNP-98701A, epi-manassantin A] | 0.1249 µg/mL (≈ 0.17 µM) | N.E. (Not effective; existence rate larger than 90% for 10 μg/ml sample) | N.E.^b (Not effective; existence rate larger than 90% for 10 μg/ml sample) | 0.0400 µg/mL (≈ 0.0546 µM) | N.E. (Not effective; existence rate larger than 90% for 10 μg/ml sample) | * (Existence rate larger than 60% for 10 μg/ml sample) | * (Existence rate larger than 60% for 10 μg/ml sample) | 0.0537 µg/mL (≈ 0.0733 µM) | * (Existence rate larger than 60% for 10 μg/ml sample) | 1.2849 µg/mL (≈ 1.75 µM) | * (Existence rate larger than 60% for 10 μg/ml sample) | 0.4233 µg/mL (≈ 0.578 µM) | 0.1698 µg/mL (≈ 0.232 µM) | * (Existence rate larger than 60% for 10 μg/ml sample) | * (Existence rate larger than 60% for 10 μg/ml sample) | 0.0996 µg/mL (≈ 0.136 µM) | *^a (Existence rate larger than 60% for 10 μg/ml sample) | 0.0795 µg/mL (≈ 0.108 µM) | 0.2544 µg/mL (≈ 0.347 µM) | 0.5561 µg/mL (≈ 0.759 µM) | IC50 (KATO-III; Homo sapiens, KATO III, 48 h, read-out: IC50 KATO-III, MTT, 48 hr): 0.617 µg/mL (≈ 0.842 µM); IC50 (MCF-7; Homo sapiens, MCF7, 48 h, read-out: IC50 MCF-7): > 10 µg/mL; IC50 (Hep-2; Homo sapiens, HEp-2, 48 h, read-out: IC50 Hep-2, MTT, 48 hr): 0.0406 µg/mL (≈ 0.0554 µM); Existence rate class, SK-OV-3 (in IC50 table) (SK-OV-3): N.E. (Not effective; existence rate larger than 90% for 10 μg/ml sample); IC50 T98G (T98G): 0.2470 µg/mL (≈ 0.337 µM); IC50 A431 (A431): 0.4903 µg/mL (≈ 0.669 µM); Existence rate class, NCI-H69 (in IC50 table) (NCI-H69): * (Existence rate larger than 60% for 10 μg/ml sample); Existence rate class, HS-578T (in IC50 table) (HS-578T): N.E.^b (Not effective; existence rate larger than 90% for 10 μg/ml sample); Existence rate class, 293 (in IC50 table) 293: *^a (Existence rate larger than 60% for 10 μg/ml sample); Solubility in methanol, ethanol, ethyl acetate, chloroform and dimethylsulfoxide (DMSO) (Solubility): highly soluble; Solubility in water, acetone, ether and hexane (Solubility): insoluble; IC50 HT1080 (HT1080): 0.4267 µg/mL (≈ 0.582 µM) |
| COc1ccc(C(O)C(C)Oc2ccc(C3OC(c4ccc(OC(C)[C@@H](O)c5ccc(OC)c(OC)c5)c(OC)c4)C(C)C3C)cc2OC)cc1OC (single isomer, unassigned) [HNP-98701B] | 0.0695 µg/mL (≈ 0.0948 µM) | N.E. (Not effective; existence rate larger than 90% for 10 μg/ml sample) | N.E. (Not effective; existence rate larger than 90% for 10 μg/ml sample) | 0.0167 µg/mL (≈ 0.0228 µM) | N.E. (Not effective; existence rate larger than 90% for 10 μg/ml sample) | * (Existence rate larger than 60% for 10 μg/ml sample) | * (Existence rate larger than 60% for 10 μg/ml sample) | 0.0184 µg/mL (≈ 0.0251 µM) | * (Existence rate larger than 60% for 10 μg/ml sample) | 0.4314 µg/mL (≈ 0.589 µM) | * (Existence rate larger than 60% for 10 μg/ml sample) | 0.1680 µg/mL (≈ 0.229 µM) | 0.0866 µg/mL (≈ 0.118 µM) | * (Existence rate larger than 60% for 10 μg/ml sample) | * (Existence rate larger than 60% for 10 μg/ml sample) | 0.0292 µg/mL (≈ 0.0398 µM) | * (Existence rate larger than 60% for 10 μg/ml sample) | 0.0388 µg/mL (≈ 0.0529 µM) | 0.1123 µg/mL (≈ 0.153 µM) | 0.2325 µg/mL (≈ 0.317 µM) | IC50 KATO-III (KATO-III; MTT, 48 hr): 0.4477 µg/mL (≈ 0.611 µM); IC50 MCF-7 (MCF-7; MTT, 48 hr): >10 µg/mL; IC50 Hep-2 (Hep-2; MTT, 48 hr): 0.0329 µg/mL (≈ 0.0449 µM); Existence rate class, SK-OV-3 (in IC50 table) (SK-OV-3): N.E. (Not effective; existence rate larger than 90% for 10 μg/ml sample); IC50 T98G (T98G): 0.1003 µg/mL (≈ 0.137 µM); IC50 A431 (A431): 0.2344 µg/mL (≈ 0.32 µM); Existence rate class, NCI-H69 (in IC50 table) (NCI-H69): * (Existence rate larger than 60% for 10 μg/ml sample); Existence rate class, HS-578T (in IC50 table) (HS-578T): N.E. (Not effective; existence rate larger than 90% for 10 μg/ml sample); Existence rate class, 293 (in IC50 table) 293: * (Existence rate larger than 60% for 10 μg/ml sample); Solubility in methanol, ethanol, ethyl acetate, chloroform and dimethylsulfoxide (DMSO) (Solubility): highly soluble; Solubility in water, acetone, ether and hexane (Solubility): insoluble; IC50 HT1080 (HT1080): 0.1882 µg/mL (≈ 0.257 µM) |
| O=c1[nH]cc(F)c(=O)[nH]1 [5-FU, 5-fluorouracil] |  |  |  |  |  |  |  |  |  |  |  |  |  |  |  |  |  |  |  |  | IC50 ([3]; Homo sapiens, SK-HEP1, 48 hr): > 50 µg/mL |

From patent publication US20040024055A1, “Pharmaceutical composition containing the exract of saururus chinensis baill useful as an anticancer agent and a process for the preparation thereof” (priority 2000, published 2004)
